The values that follow come from patent publication US20150246024A1 (priority 2012, published 2015).

Values after ≈ are worked out from the molar mass of the structure shown. “Also recorded” adds a separate entry of the source. Like-named read-outs stand apart in the source and are kept apart here.

One assay deals with B. anthracis Sterne. Briefly: microbe, parasite or virus in culture. Format: cell-based.
The next assay concerns S. aureus - MRSA USA300. Put plainly: microbe, parasite or virus in culture. The format is cell-based.
Assay [1] deals with S. aureus RN4220. Briefly: Growth of S. aureus culture with sub-lethal compound (OD600). The following applies: 1 μM compound, until control culture OD600 1.0.
The next assay concerns E. faecalis - VRE V583. Briefly: microbe, parasite or virus in culture. Format: cell-based.
Assay [2] concerns LTA production in S. aureus. Put plainly: Inhibition of LTA synthesis in S. aureus (immunoblot). The following applies: sub-lethal concentrations of compound. In general terms: A western blot detects proteins with antibodies after separation by electrophoresis.
Assay [3] has as its target Recombinant S. aureus LtaSSA expressed in E. coli (Staphylococcus aureus, UniProt Q2G093). Format: cell-based.
In the next assay the test system is S. aureus RN4220 (MSSA). Briefly: microbe, parasite or virus in culture. Format: cell-based.
The next assay deals with E. faecium - VRE TX0016. Briefly: microbe, parasite or virus in culture. The format is cell-based.
Assay [4] has as its system S. aureus RN4220. Put plainly: High throughput screen for growth inhibitors, 384-well. Format: cell-based. The conditions noted are these: Staphylococcus aureus, positive control, vs medium alone. How it is done: The antibiotic sensitive strain S. aureus RN4220 was used to screen for small molecule growth inhibitors in a high throughput-screening assay using 384-well microplates. Cation-adjusted Hinton Mueller II broth supplemented with 0.005% Tween-80 was inoculated with a single colony of S. aureus RN4220. Following overnight incubation, the culture was diluted 1:100 in fresh medium and incubation was continued until the bacterial suspension reached an optical density at 600 nm (OD600) of 0.6 corresponding to a bacterial titer of 5×10^8 colony forming units (CFU) per ml. An aliquot of this culture was diluted 1:400 with fresh medium and stored on ice until it could be dispensed in 384-well plates. Small-scale experiments were conducted to determine the Z′-factor (1-[(3SD^−)+(3SD^+)/(Ave^−)−(Ave^+)]) used commonly for quality assessment of raw data sets generated in high-throughput screening. In this formula, (SD^+/−) and (Ave^+/−) represent standard deviation and average of positive and negative controls. […] The OD600 in each well was recorded after 20 hours incubation. […] After 20 hours, the OD600 was measured using a plate reader in absorbance mode. […]
S. aureus lacking the ltaS gene is unable to grow at temperatures […]. […] The quality of the screen was assessed for every assay plate with the Z′-factor, a measure for data variability within the dynamic range of the assay (Zhang et al. 1999). […]

[5] abbreviates: 37° C., 18-22 hours, OD600, sigmoidal fit, read-out: IC50.

Chain of Recombinant S. aureus LtaSSA expressed in E. coli (Q2G093 whole entry): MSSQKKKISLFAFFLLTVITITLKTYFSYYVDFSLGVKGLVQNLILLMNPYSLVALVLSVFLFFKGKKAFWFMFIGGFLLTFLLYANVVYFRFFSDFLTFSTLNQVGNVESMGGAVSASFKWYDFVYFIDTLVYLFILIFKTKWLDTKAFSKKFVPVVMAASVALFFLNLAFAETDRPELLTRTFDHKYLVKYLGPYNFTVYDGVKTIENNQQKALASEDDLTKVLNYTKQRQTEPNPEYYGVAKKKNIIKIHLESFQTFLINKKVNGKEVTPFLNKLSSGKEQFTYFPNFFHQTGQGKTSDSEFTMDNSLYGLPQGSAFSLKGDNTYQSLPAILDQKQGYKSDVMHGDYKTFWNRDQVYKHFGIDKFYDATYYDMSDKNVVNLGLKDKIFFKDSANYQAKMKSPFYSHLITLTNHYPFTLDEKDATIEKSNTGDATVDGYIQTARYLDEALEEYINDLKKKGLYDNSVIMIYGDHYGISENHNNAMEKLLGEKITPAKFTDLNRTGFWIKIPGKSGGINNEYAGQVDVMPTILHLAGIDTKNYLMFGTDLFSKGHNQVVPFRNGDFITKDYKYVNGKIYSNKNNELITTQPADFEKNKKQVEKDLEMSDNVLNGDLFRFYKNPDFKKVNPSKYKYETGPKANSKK

For `COc1cccc(-c2nnc(NC(=O)c3ccc(S(=O)(=O)N(Cc4ccccc4)C(C)C)cc3)o2)c1` [4-(N-benzyl-N-isopropylsulfamoyl)-N-(5-(3-methoxyphenyl)-1,3,4-oxadiazol-2-yl)benzamide], the concentration for half-maximal inhibition (IC50) (in general, the point on the concentration scale where inhibition reaches its midpoint) with B. anthracis Sterne (Bacillus anthracis) stood at 1 µM; in the assay with S. aureus - MRSA USA300 (Staphylococcus aureus), 1.3 µM; in the assay on E. faecalis - VRE V583 (Enterococcus faecalis, VRE), 18.5 µM; with S. aureus RN4220 (MSSA) (Staphylococcus aureus, MSSA) it was 1.2 µM; with E. faecium - VRE TX0016 (Enterococcus faecium, VRE) it was 7.3 µM. In addition, the MIC against B. anthracis Sterne (Bacillus anthracis) came out at 1.6 µM (≈ 0.811 µg/mL); in the assay with S. aureus - MRSA USA300 (Staphylococcus aureus) it was 3.1 µM (≈ 1.57 µg/mL); with E. faecalis - VRE V583 (Enterococcus faecalis, VRE), 50 µM (≈ 25.3 µg/mL); in the assay on S. aureus RN4220 (MSSA) (Staphylococcus aureus, MSSA), 3.1 µM (≈ 1.57 µg/mL); with E. faecium - VRE TX0016 (Enterococcus faecium, VRE) it was 50 µM (≈ 25.3 µg/mL). In the assay with S. aureus RN4220 [1], the “reduced growth of staphylococci” value stood at 75%. In assay [2], the “LTA production (immunoblot α-LTA)” value was “affect the production of LTA; also recorded: reduced”. The “production of LTA promoted by plasmid encoded LtaSSA” value (“production of LTA promoted” below) in assay [3] was “abrogated”.
`COc1cc(OC)cc(-c2nnc(NC(=O)c3ccc(S(=O)(=O)N(C)c4ccccc4)cc3)o2)c1` [Compound 1650-I01, N-(5-(3,5-dimethoxyphenyl)-1,3,4-oxadiazol-2-yl)-4-(N-methyl-N-henylsulfamoyl)benzamide]: the MIC in the assay with B. anthracis Sterne (37° C., 18-22 hours, OD600) amounted to 3.1 µM (≈ 1.53 µg/mL); against S. aureus - MRSA USA300 (37° C., 18-22 hours, OD600) it was 6.2 µM (≈ 3.07 µg/mL); in the assay with E. faecalis - VRE V583 (37° C., 18-22 hours, OD600) it was 100.0 µM (≈ 49.5 µg/mL); against S. aureus RN4220 (MSSA) (37° C., 18-22 hours, OD600), 3.1 µM (≈ 1.53 µg/mL); against E. faecium - VRE TX0016 (37° C., 18-22 hours, OD600), 100.0 µM (≈ 49.5 µg/mL). In addition, the IC50 amounted to 1.5 µM in the assay on B. anthracis Sterne (setting [5]); 1.7 µM with S. aureus - MRSA USA300 (setting [5]); 55.6 µM in the assay with E. faecalis - VRE V583 (setting [5]); 1.3 µM in the assay on S. aureus RN4220 (MSSA) (setting [5]); 14.6 µM in the assay on E. faecium - VRE TX0016 (setting [5]). The “reduced growth of staphylococci” value in the assay with S. aureus RN4220 [1] was 50%. In addition, the “LTA production (immunoblot α-LTA)” value in assay [2] is given as “affect the production of LTA; also recorded: reduced”. Also, the “production of LTA promoted” value in assay [3] was “abrogated”.
As to `CC1CCCCN1S(=O)(=O)c1ccc(C(=O)Nc2nnc(-c3cccs3)o2)cc1` (stereo not shown) [Compound 1650-M01, 4-(2-methylpiperidin-1-ylsulfonyl)-N-(5-(thiophen-2-yl)-1,3,4-oxadiazol-2-yl)benzamide], the IC50 in the assay on B. anthracis Sterne (Bacillus anthracis) turned out to be 11.1 µM; with S. aureus - MRSA USA300 (Staphylococcus aureus), 8.4 µM; in the assay with E. faecalis - VRE V583 (Enterococcus faecalis, VRE) it was 36.7 µM; in the assay on S. aureus RN4220 (MSSA) (Staphylococcus aureus, MSSA), 7.1 µM; in the assay with E. faecium - VRE TX0016 (Enterococcus faecium, VRE), 19.4 µM. The MIC against B. anthracis Sterne (Bacillus anthracis) amounted to 25 µM (≈ 10.8 µg/mL); in the assay with S. aureus - MRSA USA300 (37° C., 18-22 hours, OD600) it was 25.0 µM (≈ 10.8 µg/mL); in the assay with S. aureus - MRSA USA300 (Staphylococcus aureus), 25 µM (≈ 10.8 µg/mL); against E. faecalis - VRE V583 (Enterococcus faecalis, VRE), 100 µM (≈ 43.3 µg/mL); in the assay with S. aureus RN4220 (MSSA) (Staphylococcus aureus, MSSA), 25 µM (≈ 10.8 µg/mL); in the assay on E. faecium - VRE TX0016 (Enterococcus faecium, VRE), 100 µM (≈ 43.3 µg/mL). Further, the “production of LTA promoted” value in assay [3] was “abrogated”.
In the assay with B. anthracis Sterne (Bacillus anthracis), `CC(=O)COC(=O)Cc1coc2ccc3ccccc3c12` [Compound 1771-1, 2-oxopropyl 2-(naphtho[2,1-b]furan-1-yl)acetate] showed an IC50 of 169 µM and an MIC greater than 400 µM. Moreover, in the assay with S. aureus RN4220 (MSSA) (Staphylococcus aureus, MSSA), the IC50 was greater than 400 µM and the MIC is greater than 400 µM.
`CNC(=O)COC(=O)Cc1coc2ccc3ccccc3c12` [Compound 1771-2, 2-(methylamino)-2-oxoethyl 2-(naphtho[2,1-b]furan-1-yl)acetate]: in the assay with B. anthracis Sterne (Bacillus anthracis), the IC50 is greater than 400 µM and the MIC was greater than 400 µM. In the assay on S. aureus RN4220 (MSSA) (Staphylococcus aureus, MSSA), this compound returned an IC50 greater than 400 µM and an MIC greater than 400 µM.
In the case of `CC(NC(=O)COC(=O)Cc1coc2ccc3ccccc3c12)c1ccccc1` (stereo not shown) [Compound 1771-3, 2-oxo-2-(1-phenylethylamino)ethyl 2-(naphtho[2,1-b]furan-1-yl)acetate], the IC50 is greater than 400 µM with B. anthracis Sterne (Bacillus anthracis) and greater than 400 µM with S. aureus RN4220 (MSSA) (Staphylococcus aureus, MSSA). Also, the MIC with B. anthracis Sterne (Bacillus anthracis) is greater than 400 µM; in the assay with S. aureus RN4220 (MSSA) (Staphylococcus aureus, MSSA), greater than 400 µM.
On to `O=C(COC(=O)Cc1ccccc1)Nc1nnc(-c2ccccc2)o1` [Compound 1771-4, 2-oxo-2-(5-phenyl-1,3,4-oxadiazol-2-ylamino)ethyl 2-phenylacetate], for which the IC50 in the assay on B. anthracis Sterne (Bacillus anthracis) was 224 µM; in the assay with S. aureus RN4220 (MSSA) (Staphylococcus aureus, MSSA) it was 242 µM. For the same compound, the MIC was greater than 400 µM against B. anthracis Sterne (Bacillus anthracis) and greater than 400 µM against S. aureus RN4220 (MSSA) (Staphylococcus aureus, MSSA).
In the assay on B. anthracis Sterne (Bacillus anthracis), `O=C(COC(=O)Cc1c[nH]c2ccccc12)Nc1nnc(-c2ccccc2)o1` [Compound 1771-5, 2-oxo-2-(5-phenyl-1,3,4-oxadiazol-2-ylamino)ethyl 2-(1H-indol-3-yl)acetate] registered an IC50 of 88.1 µM and an MIC of 200 µM (≈ 75.3 µg/mL). Moreover, in the assay on S. aureus RN4220 (MSSA) (Staphylococcus aureus, MSSA), the IC50 came out at 85.6 µM and the MIC was greater than 400 µM.
As to `Cc1cc2occ(CC(=O)OCC(=O)Nc3nnc(-c4ccccc4)o3)c2cc1C` [Compound 1771-6, 2-oxo-2-(5-phenyl-1,3,4-oxadiazol-2-ylamino)ethyl 2-(5,6-dimethylbenzofuran-3-yl)acetate], in the assay on B. anthracis Sterne (Bacillus anthracis), the IC50 amounted to 14.8 µM and the MIC came out at 25 µM (≈ 10.1 µg/mL). In the assay on S. aureus RN4220 (MSSA) (Staphylococcus aureus, MSSA), this compound had an IC50 of 15.2 µM and an MIC of 50 µM (≈ 20.3 µg/mL).
The matching figures for `O=C(COC(=O)Cc1coc2cc3c(cc12)CCC3)Nc1nnc(-c2ccccc2)o1` [Compound 1771-7, 2-oxo-2-(5-phenyl-1,3,4-oxadiazol-2-ylamino)ethyl 2-(6,7-dihydro-5H-indeno[5,6-b]furan-3-yl)acetate]: 24.1 µM, 50 µM (≈ 20.9 µg/mL), 27.7 µM and 50 µM (≈ 20.9 µg/mL).
On to `O=C(N[C@H](CO)[C@H](O)c1ccc([N+](=O)[O-])cc1)C(Cl)Cl` [chloramphenicol], for which 80 µM produced 100% inhibition in the assay on S. aureus RN4220 [4].
